What was measured:
prostatic cancer = experiment: Efficacy judgment on patients; type: in vivo, human; conditions: Case 2; IRESSA 250 mg/day combined with NITC, after one month
Procedure: (§3) Further, similarly to Example 1, an IL-12 inducer, shark cartilage (Seishin Enterprise Co., Ltd.), and a saccharide (NK, NKT activator) having an α1,3 structure were administered to the patients in each case according to the respective recommended prescriptions.

CD3+CD161+ NKT cell = experiment: NKT cell measurement by flow cytometry; type: in vivo, human; conditions: Case 2; per date of visit
Procedure: Measurement of NKR-P1-bearing NKT cell can be conducted by measuring cell surface antigens (CD3 and CD161) existing specifically on the NKT cell surface. More specifically, peripheral blood lymphocytes are examined with respect to cells with positive CD3 and positive CD161 (CD3+CD161+). That is, CD3 and CD161, NKT cell surface antigens, are measured by the two-color assay through flow cytometry using monoclonal antibody. Here, the term “NKT cell activation” refers to as the CD3+CD161+ NKT cell proportion in lymphocyte being 10% or more and preferably 16% or more. The term “NKT cell activating capability” denotes a capability of increasing the NKT cell proportion to 10% or more and preferably 16% or more, or a capability of further augmenting the NKT cell proportion from a proportion before administration of a certain substance.
(§1) In the examples, using blood obtained from cancer patients, blood cells were discriminated as positive or negative of the cell surface antigens CD3, CD161 and CD8, with each cell proportion measured according to a conventional method by two-color assay using flow cytometry. At this time, for respective monoclonal antibodies to CD3, CD161 and CD8, those manufactured by Coulter or Becton Dickinson were used.

CD3−CD161+ NK cell = experiment: NK cell measurement by flow cytometry; type: in vivo, human; conditions: Case 2; per date of visit
Excerpt: Likewise, the term “(CD3−CD161+)” refers to examination of cells with negative CD3 and positive CD161. This method is useful for NK cell measurement.
as §1

CD8+ perforin+ cells = experiment: CD8+ perforin production cell measurement; type: in vivo, human; conditions: Case 2; per date of visit
Excerpt: Further, the term “CD8+” denotes examination of cells with positive CD8. This method is useful for CTL activation measurement.
as §1
Two among CD3, CD161 and CD8, cell surface antigens, and perforin are measured with respect to peripheral blood lymphocyte according to a conventional method by three-color assay using flow cytometry. More specifically, a fixative is added to sampled blood, thus fixing cells. After addition of membrane permeating solution, anti-perforin antibody (manufactured by Pharmingen) is added for reaction. Further, PRE-Cy5 labeled second antibody (manufactured by DAKO) is added for reaction, followed by addition of anti-CD3-PE (Coulter 6604627) antibody and anti-CD161-FITC (B-D) antibody for reaction, after which measurement is conducted by flow cytometry. In the drawings and tables, the abbreviation “PER” is used.

[1] = test system: Th1/Th2 helper T-cells (CD4); experiment: Th1/Th2 cell ratio by flow cytometry; type: in vivo, human; conditions: Case 2; per date of visit
Procedure: The Th1/Th2 cell ratio was determined according to an ordinary method by helper T(Th)-cell line three-color analytical assay using flow cytometry.
First, blood collected from cancer patients was treated for 4 hours at 37° C. with phorbol 12-myristate 13 acetate and ionomycin to stimulate cells in the blood to produce cytokines. Next, Breferdin A was added to stop the production reaction, cell surface marker CD4 was stained using an anti-CD4 antibody CD4-PC5 (Beckman Coulter), the cells were fixed and then subjected to hemolysis using FACS Lysing Solution (Nippon Becton Dickinson Co., Ltd.). Thereafter, cells were permeabilized with FACS Permeabilizing Solution (Nippon Becton Dickinson Co., Ltd.), and intracellular cytokines were stained using anti-IFNγ antibody/anti-IL-4 antibody (Fastimmune IFNγ FITC/IL-4 PE, from Nippon Becton Dickinson Co., Ltd.), and then measured and analysed with a flow cytometer (FACS Calibur, Becton Dickinson).

TNFα = TNFα measurement by ELISA; type: in vivo, human; conditions: Case 2; per date of visit
Procedure: After washing, 10% fetal bovine serum (FBS)-added RPMI-1640 culture medium was added for preparation to provide a cell count of 1×10^6/ml. Phytohemagglutinin (30 μg/ml) (manufactured by Difco) was added to 200 μl of the cell suspension thus obtained, and then the mixture was cultured using a 96 well microplate under 5% CO2 at 37° C. for 24 hours.

IFNγ = IFNγ measurement by EIA; type: in vivo, human; conditions: Case 2; per date of visit
Procedure: (§2) After washing, 10% fetal bovine serum (FBS)-added RPMI-1640 culture medium is added for preparation to provide a cell count of 1×10^6. Phytohemagglutinin (manufactured by Difco) is added to 200 μl of the cell suspension thus obtained to provide a concentration of 20 μg/ml, and then the mixture is cultured using a 96 well microplate under 5% CO2 at 37° C. for 24 hours.

IL-12 = IL-12 measurement by ELISA; type: in vivo, human; conditions: Case 2; per date of visit
Procedure: Phytohemagglutinin (manufactured by Difco) is added to 200 μl of the cell suspension thus obtained to provide a concentration of 20 μg/ml, and then the mixture is cultured using a 96 well microplate under 5% CO2 at 37° C. for 24 hours.

IL-10 = IL-10 measurement; type: in vivo, human; conditions: Case 2; per date of visit
Procedure: as §2

VEGF = experiment: Serum VEGF by ELISA; type: in vivo, human; conditions: per date of visit
Procedure: (Measurement of vascular endothelial growth factor/VEGF, basic fibroblast growth factor/bFGF and neovascularization inhibitor endostatin/endostatin)
Serum concentrations were measured using commercially available kits for each enzyme linked immunosorbent assay (ELISA) ([…] Human VEGF, […] Human bFGF, […] Human Endostatin, from Cytimmune Sciences Inc.).

tumor markers = experiment: Tumor markers in clinical testing; type: in vivo, human
Excerpt: A commercially available product was used for each of the markers used in the clinical testing, and measurement values were shown in accordance with the respective recommended methods. All abbreviations shown are in accordance with common methods of presentation.

pulmonary adenocarcinoma [2] = conditions: IRESSA alone, reported up to now; cited from earlier work
[3] = test system: Th1 cytokines (TNFα, IFNγ, IL-12)
Procedure: In this case, a measurement kit purchased from R&D Systems was used. In practice, to each well of a 96-well microplate were added 50 μl of a measuring diluent, Assay Diluent RD1F, and 200 μl of a standard solution or samples prepared by the method for preparing the aforementioned samples for cytokine measurement, after which the samples were allowed to stand still at room temperature for 2 hours for reaction. Thereafter, 200 μl of horseradish peroxidase-labeled anti-IL12 antibody was added to the solution of each well, and the wells were then allowed to stand still at room temperature for 2 hours. After removing the reaction solution from each well and washing three times, 200 μl of chromophore solution was added to each well, the wells were allowed to stand still at room temperature for 20 minutes, and 50 μl of enzyme reaction stopping solution was then added to each well. The absorbance of each sample was measured at 450 nm with Emax (from Wako Pure Chemical Industries, Ltd.) employing 550 nm as a control. The amount of IL-12 is represented in pg/ml.
Measurement of IFNγ was conducted by enzyme immunoassay (EIA) using the IFNγ EASIA kit available from BioSource Europe SA. […]

[4] = test system: non-small-cell lung cancer, prostatic cancer and the like; conditions: cited from earlier work
pulmonary adenocarcinoma [5] = experiment: Efficacy judgment on patients (CR, PR, LNC, SNC, PD)
Procedure: as §3

[6] = Case 1, IRESSA added to NITC, after one and a half months
[7] = Case 3, IRESSA with NITC, approximately 1 month
[8] = IRESSA alone, reported clinical results

COc1cc2ncnc(Nc3ccc(F)c(Cl)c3)c2cc1OCCCN1CCOCC1 [IRESSA]
multiple bone metastasis (prostatic cancer): complete remission
CD3+ CD161+ (16%) (CD3+CD161+ NKT cell): 17.0%
CD3− CD161+ (11%) (CD3−CD161+ NK cell): 12.3%
CD8+ PER+ (14%) (CD8+ perforin+ cells): 7.2%
Ratio of TH1/TH2 (CD4) (7 or more) [1]: 2.7
TNF α (1000 pg/ml) (TNFα): 3420 pg/mL
IFN γ (10 IU/ml) (IFNγ): 46.2 IU/ml
IL-12 (7.8 pg/ml) (IL-12): 72.4 pg/mL
IL-10 (IL-10): 154 pg/mL
VEGF (VEGF; Case 1): 320 pg/mL
VEGF (VEGF; Case 2): 342 pg/mL
various tumor markers (tumor markers; [6]): normalized
CA15-3 (30 U/ml) (tumor markers; Case 1, per date of visit): 26 U/ml
CA19-9 (37 U/ml) (tumor markers; Case 1, per date of visit): 32 U/ml
CEA (5.0 ng/ml) (tumor markers; Case 1, per date of visit): 4.5 ng/mL
NCC-ST-439 (7.0 U/ml) (tumor markers; Case 1, per date of visit): 6.7 U/ml
SPAN-1 (30 U/ml) (tumor markers; Case 1, per date of visit): 16 U/ml
Sielyl LEX-1 (38 U/ml) (tumor markers; Case 1, per date of visit): 36 U/ml
PSA value (tumor markers; Case 2, IRESSA combined with NITC, after one month, normalized): 4.0 ng/mL
1CTP (4.5 ng/ml) (tumor markers; Case 2, per date of visit): 2.5 ng/mL
CA19-9 (37 U/ml) (tumor markers; Case 2, per date of visit): 27 U/ml
Gamma-seminoprotein (4.0 ng/ml) (tumor markers; Case 2, per date of visit): 4.0 ng/mL
PA (RIA) (4.0 ng/ml) (tumor markers; Case 2, per date of visit): 4.0 ng/mL
PAP (EIA) (3.0 ng/ml) (tumor markers; Case 2, per date of visit): 1.4 ng/mL
tumor marker CEA (tumor markers; Case 3, IRESSA with NITC, approximately 1 month, from 256 ng/ml prior to the treatment): 172 ng/mL
SLX-1 (tumor markers; Case 3, IRESSA with NITC, approximately 1 month, from 480 U/ml prior to the treatment): 140 U/ml
proportion of effective cases (pulmonary adenocarcinoma [2]): around 20%
TNFα, IFNγ, and IL-12 [3, 6]: activated at levels exceeding standard values
induced production of TNFα, IFNγ, and IL-12 [3, 7]: increased
period to reach complete remission ([4]; IRESSA alone, extremely rare cases): ≥ 4 months
CR (complete remission) found [4, 8]: almost no CR
PR (partial remission) cases [4, 8]: 10 to 20%
cessation of proliferation (NC) ([4]; treatment by IRESSA): about 50%
reduction (PR) in cancer cells ([4]; treatment by IRESSA): about 20%
carcinomatous pleural fluid and primary lung cancer (pulmonary adenocarcinoma [5]; Case 1, IRESSA 250 mg per day added to NITC, after one and a half months): completely disappeared
bone metastasis to right hip joint, cervical vertebrae and thoracic vertebrae (pulmonary adenocarcinoma [5]; [6]): cured
miliary lung metastasis (pulmonary adenocarcinoma [5]; [7]): almost disappeared
multiple costal metastasis (pulmonary adenocarcinoma [5]; [7]): disappeared
primary focus in the right lung (pulmonary adenocarcinoma [5]; [7]): reduced by half

Reference: patent US20060067947A1, “Immunotherapeutic for cancer” (Orient Cancer Therapy Co., Ltd., priority 2002, published 2006)
